# Experimental data: ChEMBL document CHEMBL1201862, “PubChem BioAssay data set” (2004)
# The source made the active and inactive calls.
# What was measured:
# [1] = molecular target: Protein-tyrosine kinase 2-beta (Homo sapiens, UniProt Q14289);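 note: potency of inhibitors of PYK2 kinase phosphorylation of poly-GT substrate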
# [2] = NIH-3T3 fibroblast cytotoxicity, dose response, cytotoxicity control, cell-based, fluorescence, Alamar Blue, secondary assay (AID 2327); assay type: functional;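 note: NIH-3T3 mouse fibroblasts cultured with fluconazole at 8 µg/mL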
# [3] = fluconazole-exposed Candida albicans growth modulators – fluorescence, retest, confirmation (AID 2467); assay type: functional, cell-based
# [4] = HIV-1 Vif–A3G interaction blockers – biochemical, TR-FRET, GST-Vif 1-94, biotin-A3G peptide, dose response retest, primary screen (AID 1117319); assay type: functional;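 note: TR-FRET signal of purified GST-Vif binding a biotinylated A3G peptide; inhibitors lower the FRET signal by blocking Vif and A3G binding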
# [5] = luciferase reporter signal suppression in cells – H4 neuroglioma cells, luminescence, dose response (AID 1990); assay type: functional, cell-based
# [6] = Luminescence Cell-Based Dose Response HTS to Identify Inhibitors of 5'UTR Stem-Loop Driven Prion Protein mRNA Translation in H4 Neuroglioblastoma Cells. [Related pubchem assays: 1827 (Project Summary), 1813 (Primary HTS)]; assay type: functional
# [7] = alpha-synuclein stem-loop luciferase translation blockers – H4 neuroglioma cells, luminescence, confirmation (AID 1988); assay type: functional, cell-based
# [8] = reduction of Shn3 3'UTR-driven luciferase in osteoblasts – cell-based, Clone20 osteoblasts, firefly luciferase, cherry-picked, dose response (AID 624132); assay type: functional;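 note: firefly luciferase luminescence from reporter carrying the Shn3 3'UTR in osteoblasts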
# [9] = loss of viability in HepG2 cells – cell-based, CellTiter-Glo, cherry-picked, cytotoxicity control for Shn3 inhibitor project, dose response (AID 624134); assay type: functional
# [10] = reduced cellular PGC1a acetyl-lysine signal – cell-based, cherry-picked samples, dose response (AID 720514); assay type: functional;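 note: potency may reflect raised or lowered acetylation signal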
# [11] = A Cell Based Secondary Assay To Explore Cytotoxicity of Compounds that Sensitize Mycobacterium Tuberculosis to Beta-Lactam Antibiotics.; assay type: functional
# Estrogen receptor = molecular target: T1, Estrogen receptor (Homo sapiens, UniProt P03372);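 note: potency for inhibiting coactivator peptide recruitment to the receptor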
# T1 sequence (P03372 whole entry): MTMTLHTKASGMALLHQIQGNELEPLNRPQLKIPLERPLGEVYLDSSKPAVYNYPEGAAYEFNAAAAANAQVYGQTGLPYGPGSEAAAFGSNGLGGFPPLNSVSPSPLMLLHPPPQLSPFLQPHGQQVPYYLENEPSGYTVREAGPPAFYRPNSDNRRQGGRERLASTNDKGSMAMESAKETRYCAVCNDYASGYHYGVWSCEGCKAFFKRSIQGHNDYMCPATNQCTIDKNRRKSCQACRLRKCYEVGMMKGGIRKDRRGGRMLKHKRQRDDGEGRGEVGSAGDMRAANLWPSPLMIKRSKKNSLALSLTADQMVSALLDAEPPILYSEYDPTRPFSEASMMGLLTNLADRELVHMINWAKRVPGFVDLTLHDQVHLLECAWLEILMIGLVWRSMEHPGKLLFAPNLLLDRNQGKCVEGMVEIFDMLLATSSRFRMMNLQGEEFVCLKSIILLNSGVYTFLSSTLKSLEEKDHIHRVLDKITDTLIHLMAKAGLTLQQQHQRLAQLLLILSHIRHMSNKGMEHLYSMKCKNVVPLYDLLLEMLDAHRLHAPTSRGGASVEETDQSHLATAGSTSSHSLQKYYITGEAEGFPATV
# Estrogen receptor beta [12] = molecular target: T2, Estrogen receptor beta (Homo sapiens, UniProt Q92731);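 note: recombinant ER-beta bound to coactivator SRC1 peptide in presence of estradiol agonist; inhibitors block coactivator peptide binding and lower the FRET signal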
# T2 sequence (Q92731 whole entry): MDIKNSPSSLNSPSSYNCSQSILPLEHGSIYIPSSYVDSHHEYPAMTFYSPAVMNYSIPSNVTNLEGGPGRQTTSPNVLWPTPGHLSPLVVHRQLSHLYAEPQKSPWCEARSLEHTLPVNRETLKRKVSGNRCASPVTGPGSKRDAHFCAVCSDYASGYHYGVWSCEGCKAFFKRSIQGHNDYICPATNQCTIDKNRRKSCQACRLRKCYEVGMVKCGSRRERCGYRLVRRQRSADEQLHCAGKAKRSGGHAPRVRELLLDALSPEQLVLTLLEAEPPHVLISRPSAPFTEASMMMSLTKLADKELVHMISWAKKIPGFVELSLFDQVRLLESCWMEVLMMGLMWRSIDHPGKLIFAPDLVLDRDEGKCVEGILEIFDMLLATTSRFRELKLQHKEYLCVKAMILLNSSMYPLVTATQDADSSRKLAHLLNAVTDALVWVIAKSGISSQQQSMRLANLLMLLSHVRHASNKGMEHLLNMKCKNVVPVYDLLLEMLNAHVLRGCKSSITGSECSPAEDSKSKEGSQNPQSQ
# Estrogen receptor beta [13] = molecular target: T2, Estrogen receptor beta; assay: blockers of SRC-3 recruitment to ERβ – biochemical, ELISA, streptavidin-HRP readout, orthogonal assay, confirmation (AID 1060)
# Cytochrome P450 2C9 = Cytochrome P450 2C9 (Homo sapiens, UniProt P11712); conditions: Potency
# Chain of Cytochrome P450 2C9 (P11712 whole entry): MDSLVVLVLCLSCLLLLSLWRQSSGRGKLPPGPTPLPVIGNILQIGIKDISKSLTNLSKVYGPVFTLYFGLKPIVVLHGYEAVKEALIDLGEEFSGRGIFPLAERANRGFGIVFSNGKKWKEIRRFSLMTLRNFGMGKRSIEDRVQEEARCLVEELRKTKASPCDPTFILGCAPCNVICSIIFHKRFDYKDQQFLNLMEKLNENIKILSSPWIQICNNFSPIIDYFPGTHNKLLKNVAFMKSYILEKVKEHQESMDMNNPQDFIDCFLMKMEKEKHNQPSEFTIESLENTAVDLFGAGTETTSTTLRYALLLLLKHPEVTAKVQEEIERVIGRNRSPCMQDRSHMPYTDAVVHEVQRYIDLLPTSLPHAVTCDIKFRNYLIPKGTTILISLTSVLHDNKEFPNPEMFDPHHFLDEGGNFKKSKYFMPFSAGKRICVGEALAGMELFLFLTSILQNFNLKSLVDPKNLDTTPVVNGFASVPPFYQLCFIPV
# Chain of Protein-tyrosine kinase 2-beta (Q14289 whole entry): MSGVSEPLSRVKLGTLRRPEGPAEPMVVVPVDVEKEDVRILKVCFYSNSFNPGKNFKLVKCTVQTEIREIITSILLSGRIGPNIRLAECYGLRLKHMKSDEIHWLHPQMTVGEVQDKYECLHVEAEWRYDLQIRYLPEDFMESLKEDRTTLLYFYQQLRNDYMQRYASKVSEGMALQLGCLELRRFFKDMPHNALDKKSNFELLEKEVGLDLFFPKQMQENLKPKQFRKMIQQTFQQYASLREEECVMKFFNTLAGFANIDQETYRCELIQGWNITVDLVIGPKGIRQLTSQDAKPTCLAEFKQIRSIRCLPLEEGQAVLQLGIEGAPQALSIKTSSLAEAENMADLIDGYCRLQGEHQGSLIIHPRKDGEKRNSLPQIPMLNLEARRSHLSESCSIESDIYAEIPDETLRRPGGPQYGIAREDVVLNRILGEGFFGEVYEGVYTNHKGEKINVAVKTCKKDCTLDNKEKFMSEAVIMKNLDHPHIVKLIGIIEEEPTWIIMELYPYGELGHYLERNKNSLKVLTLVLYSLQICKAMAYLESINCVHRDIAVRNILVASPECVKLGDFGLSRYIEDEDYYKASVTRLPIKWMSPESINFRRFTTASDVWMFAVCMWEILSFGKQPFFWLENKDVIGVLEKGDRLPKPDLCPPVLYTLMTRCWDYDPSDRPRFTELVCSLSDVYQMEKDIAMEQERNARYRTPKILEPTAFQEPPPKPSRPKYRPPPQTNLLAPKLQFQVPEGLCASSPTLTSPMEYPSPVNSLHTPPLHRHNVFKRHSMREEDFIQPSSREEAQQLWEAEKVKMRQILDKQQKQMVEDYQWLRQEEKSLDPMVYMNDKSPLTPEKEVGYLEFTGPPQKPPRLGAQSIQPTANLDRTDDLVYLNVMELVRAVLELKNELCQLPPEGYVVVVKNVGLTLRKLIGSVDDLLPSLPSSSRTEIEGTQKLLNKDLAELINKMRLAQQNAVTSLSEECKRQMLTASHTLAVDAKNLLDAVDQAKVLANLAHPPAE
structure (smiles),measurement,setting,value
COc1ccc(-c2ccc3c(N)c(C(=O)c4ccc(OC)c(OC)c4)sc3n2)cc1,IC50,[1],4.28 µM (active)
CC(=O)c1c(C)[nH]c(C(=O)Nc2ccc(C)c(C)c2)c1C,EC50,[2],72.3 µM (active)
same,EC50,[3],> 38 µM (not active)
same,IC50,[4],> 100 µM (active)
CC(C)CC(NC(=O)c1ccc(Cl)cc1)C(=O)OCC(=O)c1ccc2c(c1)NC(=O)CO2 (centres undefined),EC50,[5],6.2 µM (active)
same,EC50,[6],2.69 µM (active)
same,EC50,[7],4.38 µM (active)
same,AC50,[8],4.01 µM (active)
same,AC50,[9],15.5 µM (active)
same,AC50,[10],6.45 µM (active)
Cc1cc(SCC(=O)c2ccccc2)n2ncc(-c3ccccc3)c2n1,CC50,[11],25.8 µM (active)
CCC(C)C(NC(N)=O)C(=O)Nc1ccc(OCc2ccccc2)cc1 (centres undefined),CC50,[11],> 40 µM (active)
O=C(COC(=O)c1cccc(S(=O)(=O)N2CCc3ccccc3C2)c1)NCc1ccco1,IC50,Estrogen receptor,25 µM (active)
same,IC50,Estrogen receptor beta [12],> 50 µM (not active)
same,IC50,Estrogen receptor beta [13],0.0242 µM (not active)
CCN(CC)c1ccc(C(=O)n2cnc3ccccc32)cc1,CC50,[11],> 40 µM (active)
COc1ccc(-n2c(SCC#N)nnc2-c2cccnc2)cc1,AC50,[10],16.7 µM (active)
C=CCC1C=CC(Oc2ccc(F)cc2C)C(CO)O1 (centres undefined),AC50,Cytochrome P450 2C9,3.98 µM (inconclusive)
COc1cc(/C=C(\C#N)c2nc3ccccc3[nH]2)c([N+](=O)[O-])cc1OCc1ccccc1,IC50,[4],> 100 µM (active)
